Data taken from US20230203081A1, “LINCOSAMIDE ANTIBIOTICS AND USES THEREOF” (President and Fellows of Harvard College, priority 2020, published 2023).
Values after ≈ are worked out from the molar mass of the structure shown.

Key:
Assay in all cases: microbe, parasite or virus in culture
Type in all cases: cell-based
[1] = tested on: E. coli armA; settings: Escherichia coli, E. coli armA
In short: (§1)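 Per CLSI, MICs by broth microdilution or agar dilution; strains other than streptococci and anaerobes were sub-cultured overnight at 35° C on blood agar, with a final broth inoculum of 5×10^5 CFU/mL.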

[2] = tested on: E. coli ΔTolC; settings: Escherichia coli, E. coli ΔTolC
In short: as §1

[3] = tested on: S. aureus BAA 977 iErmA; settings: Staphylococcus aureus
In short: as §1

[4] = tested on: S. aureus MP-549 msrA; settings: Staphylococcus aureus, MP549MSRA
In short: as §1

[5] = tested on: broad panel of different clinical isolates
In short: as §1

CCC[C@@H]1C[C@@H](C(=O)N[C@@H]([C@H]2O[C@H](SC)[C@H](O)[C@@H](O)[C@H]2O)[C@H](C)Cl)N(C)C1 [Clindamycin, clindamycin, reference compound]
MIC [1]: > 128 µg/mL
MIC [2]: 4 µg/mL (≈ 9.41 µM)
MIC ([3]; BAA977): 0.12 µg/mL (≈ 0.282 µM)
MIC ([3]; BAA-977 / MRSA): 0.125 µg/mL (≈ 0.294 µM)
MIC ([3]; BAA-977 / MRSA, 24 h): > 128 µg/mL
MIC ([4]; S. aureus MP-549 msrA): 0.12 µg/mL (≈ 0.282 µM)
MIC ([4]; S. aureus HAV#032, MP-549, MSR(A)): 0.125 µg/mL (≈ 0.294 µM)
MIC ([5]; Acinetobacter baumannii, A. baumannii HAV#651, Clinical): 128 µg/mL (≈ 301 µM)
MIC ([5]; Acinetobacter baumannii, A. baumannii HAV#652 Clinical): 128 µg/mL (≈ 301 µM)
MIC ([5]; Acinetobacter baumannii, A. baumannii HAV#653, Clinical): 64 µg/mL (≈ 151 µM)
MIC ([5]; Acinetobacter baumannii, A. baumannii HAV#654, Clinical): 64 µg/mL (≈ 151 µM)
MIC ([5]; Acinetobacter baumannii, A. baumannii HAV#655, Clinical): 128 µg/mL (≈ 301 µM)
MIC ([5]; Acinetobacter baumannii, A. baumannii HAV#656, Clinical): 128 µg/mL (≈ 301 µM)
MIC ([5]; Acinetobacter baumannii, A. baumannii HAV#657, Clinical): 128 µg/mL (≈ 301 µM)
MIC ([5]; Acinetobacter baumannii, A. baumannii HAV#658, Clinical): 64 µg/mL (≈ 151 µM)
MIC ([5]; Acinetobacter baumannii, A. baumannii HAV#659, Clinical): 128 µg/mL (≈ 301 µM)
MIC ([5]; Acinetobacter baumannii, A. baumannii HAV#660, Clinical): > 128 µg/mL
MIC ([5]; Acinetobacter baumannii, A. baumannii HAV#661, Clinical): 64 µg/mL (≈ 151 µM)
MIC ([5]; Acinetobacter baumannii, A. baumannii HAV#662, Clinical): 64 µg/mL (≈ 151 µM)
MIC ([5]; Acinetobacter baumannii, A. baumannii HAV#663, Clinical): 32 µg/mL (≈ 75.3 µM)
MIC ([5]; Acinetobacter baumannii, A. baumannii HAV#664, Carbapenem R): 128 µg/mL (≈ 301 µM)
MIC ([5]; Enterococcus faecalis, E. faecalis HAV#602, Clincal): 16 µg/mL (≈ 37.6 µM)
MIC ([5]; Enterococcus faecalis, E. faecalis HAV#611, Line R & Vanco R): 128 µg/mL (≈ 301 µM)
MIC ([5]; Enterococcus faecalis, E. faecalis HAV#612, Line R): 8 µg/mL (≈ 18.8 µM)
MIC ([5]; Enterococcus faecalis, S. faecalis 5060, Line R & Vanco R): 128 µg/mL (≈ 301 µM)
MIC ([5]; Enterococcus faecalis, S. faecalis 5074, Line R): 8 µg/mL (≈ 18.8 µM)
MIC ([5]; Enterococcus faecalis, VRE, E. faecalis HAV#251, Clinical VRE): > 128 µg/mL
MIC ([5]; Enterococcus faecium, E. faecium HAV#317, Clinical): 8 µg/mL (≈ 18.8 µM)
MIC ([5]; Enterococcus faecium, E. faecium HAV#327, Clinical): 8 µg/mL (≈ 18.8 µM)
MIC ([5]; Enterococcus faecium, E. faecium HAV#604, Clinical): 8 µg/mL (≈ 18.8 µM)
MIC ([5]; Enterococcus faecium, VRE, E. faecium HAV#318, VanA): > 128 µg/mL
MIC ([5]; Enterococcus faecium, VRE, E. faecium HAV#320, Clinical): > 128 µg/mL
MIC ([5]; Enterococcus faecium, VRE, E. faecium HAV#326, Clinical): 8 µg/mL (≈ 18.8 µM)
MIC ([5]; Escherichia coli, E. coli HAV#501, Clinical): > 128 µg/mL
MIC ([5]; Escherichia coli, E. coli HAV#503, Clinical): 64 µg/mL (≈ 151 µM)
MIC ([5]; Escherichia coli, E. coli HAV#511, Clinical): 128 µg/mL (≈ 301 µM)
MIC ([5]; Escherichia coli, E. coli HAV#512, Clinical): > 128 µg/mL
MIC ([5]; Escherichia coli, E. coli HAV#513, Clinical): > 128 µg/mL
MIC ([5]; Escherichia coli, E. coli HAV#514, Clinical): 128 µg/mL (≈ 301 µM)
MIC ([5]; Escherichia coli, E. coli HAV#516, ESBL-producing): 128 µg/mL (≈ 301 µM)
MIC ([5]; Haemophilus influenzae, ATCC9007, H. influenzae HAV#376, ATCC-9007): 8 µg/mL (≈ 18.8 µM)
MIC ([5]; Klebsiella pneumoniae, K. pneumoniae HAV#402, FQ-R): > 128 µg/mL
MIC ([5]; Klebsiella pneumoniae, K. pneumoniae HAV#404, Clinical): 128 µg/mL (≈ 301 µM)
MIC ([5]; Klebsiella pneumoniae, K. pneumoniae HAV#405, Clinical): > 128 µg/mL
MIC ([5]; Klebsiella pneumoniae, K. pneumoniae HAV#406, Clinical): > 128 µg/mL
MIC ([5]; Klebsiella pneumoniae, K. pneumoniae HAV#407, Clinical): > 128 µg/mL
MIC ([5]; Klebsiella pneumoniae, K. pneumoniae HAV#408, Clinical): > 128 µg/mL
MIC ([5]; Klebsiella pneumoniae, K. pneumoniae HAV#409, ESBL-producing): > 128 µg/mL
MIC ([5]; Neisseria gonorrhoeae, N. gonorrhoeae HAV#701, Clinical): 2 µg/mL (≈ 4.71 µM)
